Test results reported in BindingDB's records for doi:10.7270/Q2M9073J (Burnham Center For Chemical Genomics, 2010).

Molecular target: T1, Tyrosine-protein phosphatase non-receptor type 22 (Homo sapiens, UniProt Q9Y2R2)
T1 sequence (Q9Y2R2 whole entry): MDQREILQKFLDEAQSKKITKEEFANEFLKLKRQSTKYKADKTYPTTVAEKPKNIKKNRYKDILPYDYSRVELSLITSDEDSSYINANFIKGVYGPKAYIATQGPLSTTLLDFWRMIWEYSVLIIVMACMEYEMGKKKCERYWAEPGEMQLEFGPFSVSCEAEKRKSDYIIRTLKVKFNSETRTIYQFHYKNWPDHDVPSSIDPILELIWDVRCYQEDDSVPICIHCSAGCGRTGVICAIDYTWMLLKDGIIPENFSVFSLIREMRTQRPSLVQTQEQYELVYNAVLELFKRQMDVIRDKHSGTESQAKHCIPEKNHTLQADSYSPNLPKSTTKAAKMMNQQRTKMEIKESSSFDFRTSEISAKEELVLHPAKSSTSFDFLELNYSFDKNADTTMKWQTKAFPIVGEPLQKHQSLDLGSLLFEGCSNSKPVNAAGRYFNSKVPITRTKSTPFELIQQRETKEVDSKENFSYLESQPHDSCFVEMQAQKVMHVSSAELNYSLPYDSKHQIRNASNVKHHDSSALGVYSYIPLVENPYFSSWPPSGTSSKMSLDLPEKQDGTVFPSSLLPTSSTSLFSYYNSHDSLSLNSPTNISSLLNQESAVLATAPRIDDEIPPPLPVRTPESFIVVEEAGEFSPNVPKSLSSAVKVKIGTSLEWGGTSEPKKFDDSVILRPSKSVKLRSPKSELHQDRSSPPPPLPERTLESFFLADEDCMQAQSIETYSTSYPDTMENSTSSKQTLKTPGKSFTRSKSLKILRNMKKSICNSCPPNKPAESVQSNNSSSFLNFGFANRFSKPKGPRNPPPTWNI
Assay: LYP (PTPN22) phosphatase inhibitor potency, SAR follow-up, biochemical, pCAP fluorogenic substrate, fluorescence, set 3 (AID 449727)

IC50: > 100 µM
Compound: CCOc1ccc2nc(NC(=O)CSc3cc(O)c4c(C)c(C)sc4n3)sc2c1 [2-[(2,3-dimethyl-4-oxidanylidene-5H-thieno[2,3-b]pyridin-6-yl)sulfanyl]-N-(6-ethoxy-1,3-benzothiazol-2-yl)ethanamide]
